In patent US20220370502A1, “Active Ingredient of an Erythrocytes-containing Composition” (priority 2020, published 2022):

Columns and labels:
Format in all cases: cell-based
human erythrocytes [1] = test: Annexin-V-FLUOS binding (eryptosis) by flow cytometry
Description: (§1) Single treatment: Erythrocytes were treated with costunolide or chelerythrine for 24 hours (see FIGS. 2, 4, 5 and 6). Double treatments: Erythrocytes were first pre-treated with chelerythrine for two hours, followed by treatment with costunolide for further 24 hours (see FIGS. 3 and 7). Thus, the incubation time for chelerythrine-treated erythrocytes lasted 26 h and 24 h for costunolide-treated erythrocytes. In single (0.2% v/v DMSO) and double treatments (0.4% v/v DMSO), DMSO-treated cells served as negative controls. […]
(§2) At the end of the incubation period, 0.1 ml erythrocytes (3×10^6) were added in 500 μl annexin wash buffer, mixed thoroughly and pelleted by centrifuging. […] After an incubation period of 20 minutes in the dark at room temperature, 200 μl annexin binding buffer was added to each sample, thoroughly vortexed to obtain single cell suspensions, and analyzed by flow cytometry on a FACS Calibur (Becton Dickinson, Heidelberg, Germany). In the FL1-channel, binding of annexin-V-FLUOS (eryptosis) was measured. Erythrocyte volume was determined by forward scatter (FSC). To this end, corresponding erythrocytes suspensions were immediately analysed by flow cytometry.

human erythrocytes [2] = test: Intracellular GSH and GSSG analysis; details: costunolide 1-80 μM, 24 h, FIG. 5
Description: For single (FIG. 5) or double treatments (FIG. 7), pure RBCs (0.6% Hct) were suspended in 30 ml Ringer solution and treated with varying concentrations of costunolide (1-80 μM) or different concentrations of chelerythrine (1-10 μM) and a fixed costunolide concentration (80 μM). DMSO-treated RBCs served as negative control. After incubation, 58 μl from a 310 mM NEM stock was given to each condition, gently mixed for 1 min and then centrifuged 10 min long at 10 C and 228×g. Supernatants were removed and the cell pellets were stored at −20° C. until analyses. GSH and GSSG were measured on the clear supernatant obtained by treatment of 0.1 ml RBCs with 0.12 ml 15% (w/v) trichloroacetic acid. […] GSSG was measured at the spectrophotometer by the GSH recycling method with slight modifications (Giustarini D. et al. 2013; Nat. Protoc. 8: 1660-1669, “Analysis of GSH and GSSG after derivatization with N-ethylmaleimide”). One aliquot of RBCs ([…]) was hemolyzed by a 1:200 dilution with H2O for haemoglobin determination (Di lorio E.E. 1981; Methods Enzymol. 76: 57-72 “Preparation of derivatives of ferrous and ferric hemoglobin”). The HPLC analyses were carried out by an Agilent series 1100 instrument. The spectrophotometric analyses were performed by a Jasco V-530 instrument.

[3] = target: T1, glucose-6-phosphate dehydrogenase (G6PDH) (Homo sapiens, UniProt P11413); test: Determination of G6PDH activity in erythrocyte lysates; details: costunolide treatment of erythrocytes, 24 h, FIG. 6
T1 construct: endogenous in cells; host or cells: human erythrocytes (RBCs), hemolysate
T1 sequence (P11413 whole entry): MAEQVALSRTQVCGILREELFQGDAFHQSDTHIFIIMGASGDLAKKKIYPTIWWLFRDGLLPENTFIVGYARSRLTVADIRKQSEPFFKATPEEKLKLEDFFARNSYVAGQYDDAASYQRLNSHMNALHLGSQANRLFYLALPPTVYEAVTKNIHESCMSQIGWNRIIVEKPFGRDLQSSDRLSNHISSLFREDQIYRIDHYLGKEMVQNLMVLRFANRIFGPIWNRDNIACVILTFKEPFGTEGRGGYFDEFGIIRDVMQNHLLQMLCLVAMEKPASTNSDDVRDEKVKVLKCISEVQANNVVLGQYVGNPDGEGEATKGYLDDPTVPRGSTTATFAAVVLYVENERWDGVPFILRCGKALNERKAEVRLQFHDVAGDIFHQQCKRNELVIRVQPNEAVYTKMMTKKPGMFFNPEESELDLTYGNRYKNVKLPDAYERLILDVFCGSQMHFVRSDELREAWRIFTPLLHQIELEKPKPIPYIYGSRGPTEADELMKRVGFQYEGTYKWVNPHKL
Description: Pure RBCs (0.6% Hct) were incubated in 20 ml Ringer solution and treated with DMSO or different concentrations of costunolide. 24 hrs later, cell suspensions were centrifuged at 10° C., 228×g. Supernatants were removed and the cell pellets were stored at −80° C. until analyses. G6PDH activity was measured in lysates according to methods recommended by the International Committee for Standardization in Hematology (Di lorio E.E. 1981; l.c.). The activity was expressed in units per grams of hemoglobin (U/g Hb) (Ghashghaeinia M. et al. 2012; l.c.). RBC pellet was diluted 1:20 with distilled water. After 10 min (for GR 20 min) incubation at 37° C., the reactions were started by adding substrate or hemolysate and mixed properly. Then, 200 μL of each reaction mixture was transferred into a 96-well plate and changes in absorbance were recorded at 340 nm at 1 min intervals for 20 min at 37° C. (Infinite 200 Nanoquant, Tecan). All assays were run in triplicates and specific enzyme activity was calculated using the Lambert-Beer law. Activity =(ΔA×V/(ϵ×l×t))×f.
0.1 M Tris-HCl/0.5 mM EDTA, pH=8.0; 0.01 M MgCl2; 0.2 mM NADP^+; 20 μL of 1:20 hemolysate; 10 min incubation at 37° C.; start by addition of 0.6 mM 6PGA+0.6 mM G6P

human erythrocytes [4] = test: Erythrocyte volume by forward scatter (cell shrinkage); details: single treatment with increasing concentrations of costunolide, 24 h, FIG. 2
Description: as §1, §2

human erythrocytes [5] = test: Hemolysis measurement (hemoglobin in supernatant, 405 nm); details: costunolide treatment, 24 h, FIG. 2C
Description: After 24 hours treatment of erythrocytes (0.6% Hct) with costunolide and/or chelerythrine, hemolysis was determined. 600 μl cell suspension form each condition containing 3.6×10^6 erythrocytes centrifuged for 8 min at 420×g, 4° C., and the supernatants were harvested. As a measure of hemolysis, the hemoglobin (Hb) concentration of the supernatants was determined photometrically at 405 nm. The absorption of the supernatant of DMSO-treated erythrocytes lysed in 600 μl distilled water was defined as 100%. From this the standard curve was made by serial dilution.

eryptosis rate (human erythrocytes [1]; single treatment with increasing concentrations of costunolide, 24 h, FIG. 2) | Structure (SMILES) | basal eryptosis rate (human erythrocytes [1]; without costunolide, DMSO control 1.69%, FIG. 3A) | GSH (reduced glutathione) level (human erythrocytes [2]) | GSSG (oxidized glutathione) level (human erythrocytes [2]) | G6PDH activity [3] | cell shrinkage (human erythrocytes [4]) | hemolysis (human erythrocytes [5])
 | COc1ccc2c(c[n+](C)c3c4cc5c(cc4ccc23)OCO5)c1OC [chelerythrine, 1,2-Dimethoxy-12-methyl[1,3]benzodioxolo[5,6-c]phenanthridinium] | 1.1% |  |  |  |  | 
increased rates of eryptosis | C=C1C(=O)O[C@@H]2/C=C(\C)CC/C=C(\C)CC[C@@H]12 [costunolide] |  | deplete both the reduced (GSH) and the oxidized (GSSG) form of glutathione in a concentration-dependent manner | deplete both the reduced (GSH) and the oxidized (GSSG) form of glutathione in a concentration-dependent manner | inhibit G6PDH activity completely | increased rates of eryptosis and cell shrinkage | not associated with hemolysis
